According to patent US20170306409A1, “CANCER PATIENT SELECTION FOR ADMINISTRATION OF WNT SIGNALING INHIBITORS USING RNF43 MUTATION STATUS” (NOVARTIS AG, priority 2012, published 2017):

Key:
CFPAC-1 = assay: foci formation assay; type: cell-based, human; conditions: 1 μM LGK974
Description: (§1) To assay foci formation, 6,000˜12,000 cells of indicated cell lines were seeded in 6 well tissue culture plate in 2 ml growth media. After overnight culture for cell attachment, media was replaced with fresh growth media containing 1 μM LGK974 in the absence and presence of recombinant Wnt3a. For DOX-inducible β-catenin shRNA experiment, cells were treated 5 ng/ml doxycycline. When cell colonies reached desirable size, cells were fixed with 4% formalin in PBS and stained with crystal violet solution. After a few washes, plates were dried and imaged.
(§2) Identification of pancreatic cancer lines containing inactivation mutation of RNF43. Discovery of LGK974, a potent and selective inhibitor of Porcupine, offered us a unique chemical tool to systemically examine Wnt dependency in a large panel of cancer cell lines. We tested LGK974 in a large panel of pancreatic cancer cell lines using foci formation assay. Foci formation assay was utilized because it is more sensitive than routine growth assays such as CellTiter-Glo, and it is less affected by the different growth rates of various cell lines.

HuPT3 = assay: foci formation assay; type: cell-based, human; conditions: 1 μM LGK974
Description: as §1, §2

KLM1 = assay: foci formation assay; type: cell-based, human; conditions: 1 μM LGK974
Description: as §1, §2

KP-1NL = assay: foci formation assay; type: cell-based, human; conditions: 1 μM LGK974
Description: as §1, §2

PANC-1 = assay: foci formation assay; type: cell-based, human; conditions: 1 μM LGK974
Description: as §1, §2

PK1 = assay: foci formation assay; type: cell-based, human; conditions: 1 μM LGK974
Description: as §1, §2

PaTu-8902 = assay: foci formation assay; type: cell-based, human; conditions: 1 μM LGK974
Description: as §1, §2

PaTu-8988S = assay: foci formation assay; type: cell-based, human; conditions: 1 μM LGK974
Description: as §1, §2

Pan02.03 = assay: foci formation assay; type: cell-based, human; conditions: 1 μM LGK974
Description: as §1, §2

Panc03.27 = assay: foci formation assay; type: cell-based, human; conditions: 1 μM LGK974
Description: as §1, §2

QGP-1 = assay: foci formation assay; type: cell-based, human; conditions: 1 μM LGK974
Description: as §1, §2

T3M4 = assay: foci formation assay; type: cell-based, human; conditions: 1 μM LGK974
Description: as §1, §2

[1] = tested on: STF Wnt reporter, YAPC-STF cells; assay: SuperTOPFlash (STF) luciferase reporter assay; type: cell-based, human; conditions: absence of exogenous Wnt3a, LGK974 or IWP-2
Description: For the luciferase reporter assay, YAPC-STF reporter cells were transfected with siRNA and treated with Wnt3a conditioned medium or compound where applicable. STF luciferase assays were performed using BrightGlo Luciferase Assay kits (Promega) according to the manufacturer's instructions.
To construct pancreatic cell lines expressing STF reporter, HEK293 cells were grown in medium recommended by ATCC supplemented with 10% FBS. Retrovirus or lentivirus was produced from HEK293 cells by standard virus packaging procedure using FuGENE 6 (Roche) transfection reagent. Pancreatic cell lines expressing STF reporter, RNF43 constructs, or DOX-inducible β-catenin shRNA were generated by viral infection and drug selection.
Depletion of RNF43 induces Dvl phosphorylation and β-catenin stabilization. […] RNF43 siRNA-induced STF activity in the absence of exogenous Wnt3a is inhibited by LGK974 and a previously known Porcupine inhibitor IWP-2. Chen B et al. (2009) Nat. Chem. Biol. 5(2):100-7. See, FIG. 3(b), showing that this activity is dependent on the expression of endogenous Wnt proteins.

Capan-2 xenografts = assay: PDAC xenograft model, in vivo efficacy and pharmacodynamics; design: species or system mice
From the text: (§3) To analyze the role of Wnt pathway activation in maintenance of RNF43 mutant pancreatic tumors in vivo, we utilized two PDAC xenograft models (HPAFII and Capan-2).
(§4) For in vivo efficacy and pharmacodynamic studies, cells were harvested at a density of 95-110% confluency. 10 million cells (HPAFII) or 3 million cells (Capan-2) mixed 50:50 with BD matrigel matrix basement membrane (Matrigel) (BD Biosciences) were subcutaneously implanted into the upper right supra-axillary region of nu/nu (Harlan) (HPAFII) or scid.bg (Harlan) (Capan-2) mice. Tumors were monitored twice weekly by calipering and tumor volumes (TV) were calculated using the ellipsoid formula: TV(mm^3)=((l×w^2)×3.14159))/6. Xenograft tumor-bearing mice were randomized to treatment groups (n=8 per group) either 14 days post tumor implant (Capan-2), when the mean tumor volume reached 223 mm^3 (range 200-250 mm^3) or 11 days post implant (HPAFII), when the mean tumor volume reached 341 mm^3 (range 272-418 mm^3). Mice were treated by oral gavage (p.o.) twice daily (BID) at a dosing volume of 10 mL/kg with either vehicle (0.5% methylcelluose (MC)/0.5% Tween 80) or a 0.65 mg/mL suspension of the fumarate salt form of LGK974 (LGK974-AE-4, free base molecular weight conversion factor 1.293) in 0.5% MC/0.5% Tween 80. In vivo doses are reported as free base equivalents. Following treatment for 14 days (HPAFII) or 35 days (Capan-2), anti-tumor activity was reported as percent treatment/control (% T/C) or % Regression (% REG) values. Anti-tumor activity was calculated using the following formula: % T/C=100 ΔΔTt/ΔCt if ΔTt≧0; or % REG=100 ΔΔTt/T0 if ΔTt<0; where: T0=mean tumor volume (TV) of the drug-treated group on the day of randomization; Tt=mean TV of the drug-treated group at study end; […]; Ct=mean TV of the control group on the final day of the study; C0=mean TV of the control group on the day of randomization; and ΔCt=C0−Ct*% T/C values in the range of 100 to 42% are interpreted to have no anti-tumor activity; % T/C values 42% and >10% are interpreted to have anti-tumor activity, % T/C values 10% or % REG≧-10% are interpreted to be tumor stasis. % REG values <-10% are interpreted as regressions. Separate, parallel cohorts of animals (n=3 per treatment and time point) were treated with vehicle or LGK974 as above to obtain tumor tissue for ex vivo analysis of pharmacodynamic markers.
(§5) Furthermore, treatment of mice bearing Capan-2 xenografts with 5 mg/kg LGK974, p.o. BID for 35 days achieved tumor stasis (T/C=5%). Consistent with the mechanism of action of LGK974, expression of the β-catenin target gene, AXIN2, was decreased in treated HPAFII and Capan-2 xenografts.

HPAFII xenografts = assay: as above; design: species or system mice
From the text: as §3, §4, §5

SMILES: Cc1cc(-c2ncc(CC(=O)Nc3ccc(-c4cnccn4)cn3)cc2C)ccn1 [LGK974, 2-[5-methyl-6-(2-methylpyridin-4-yl)pyridin-3-yl]-N-[5-(pyrazin-2-yl)pyridin-2-yl]acetamide]
- Growth inhibition in foci formation assay (CFPAC-1): No
- Growth inhibition in foci formation assay (HuPT3): No
- Growth inhibition in foci formation assay (KLM1): No
- Growth inhibition in foci formation assay (KP-1NL): No
- Growth inhibition in foci formation assay (PANC-1): No
- Growth inhibition in foci formation assay (PK1): without significant effect and No
- Growth inhibition in foci formation assay (PaTu-8902): No
- Growth inhibition in foci formation assay (PaTu-8988S): strong growth inhibitory activity and strongly inhibited and Yes
- Growth inhibition in foci formation assay (Pan02.03): No
- Growth inhibition in foci formation assay (Panc03.27): No
- Growth inhibition in foci formation assay (QGP-1): No
- Growth inhibition in foci formation assay (T3M4): No
- RNF43 siRNA-induced STF activity [1]: inhibited
- cell cycle arrest and differentiation within the xenograft tumors (Capan-2 xenografts; Capan-2 xenograft tumors): induced cell cycle arrest and differentiation
- T/C (tumor stasis) (Capan-2 xenografts; mice bearing Capan-2 xenografts, 5 mg/kg p.o. BID for 35 days): 5%
- expression of the β-catenin target gene AXIN2 in xenografts (Capan-2 xenografts; treated Capan-2 xenografts): decreased
- cell cycle arrest and differentiation within the xenograft tumors (HPAFII xenografts; HPAFII xenograft tumors): induced cell cycle arrest and differentiation
- T/C (tumor growth in treated relative to vehicle) (HPAFII xenografts; mice bearing HPAFII xenografts, 5 mg/kg p.o. BID for 14 days): 33%
- expression of the β-catenin target gene AXIN2 in xenografts (HPAFII xenografts; treated HPAFII xenografts): decreased
